In US20120172351A1, “NOVEL FUSED CYCLIC COMPOUND AND USE THEREOF” (priority 2009, published 2012):
Counter-ions that a name gives are not always drawn.

Target: T1, human derived GPR40 (Homo sapiens, UniProt O14842)
T1 construct: expressed in transfected cells
Experiment: Agonist action on human derived GPR40: change of intracellular calcium concentration in CHO cells (FLIPRtetra)
Format: cell-based
Conditions: agonist activity of compound at 1 μM, relative to 10 μM γ linolenic acid as 100%, wave peak height; CHO cells stably expressing human GPR40
Experimental: The CHO cell lines that stably expressed human derived GPR40 were used for the determination of the agonist activity. Unless particularly specified, the CHO cell lines were cultured in an α-MEM medium (Wako Pure Chemical Industries, Ltd.) containing 10% dialyzed fetal bovine serum (TRA Thermo Electron).
The cells cultured almost to confluent on the day before assay were rinsed with PBS (Invitrogen), detached with 0.5 mM EDTA (Wako Pure Chemical Industries, Ltd.), and recovered by centrifugation. The obtained cells were counted, diluted to 2×10^5 cells per 1 mL medium, dispensed by 40 μL per well to a 384 well black clear bottomplate (PE Biosystems), and cultured overnight in a CO2 incubator. Various test compounds were added to CHO cells prepared as mentioned above, and change of intracellular calcium concentration was measured using FLIPRtetra (Molecular Device). For the measurement by this device, a Calcium 4 assay kit (Molecular Devices: R8142) was used.
First, fatty acid free BSA at the final concentration of 0.1% was added to the buffer attached to the kit to prepare an assay buffer. Using the assay buffer, a loading solution with Fluo4 was prepared such that the final concentration of fatty acid free BSA was 0.1% and the final concentration of probenecid was 625 μM. On the other hand, a test compound was diluted with the assay buffer to a given concentration, and dispensed to the polypropylene 384-well plate (sample plate). The medium was removed from the cell culture plate, and the loading solution with Fluo4 was dispensed by 25 μL. After culture in a CO2 incubator at 37° C. for 40 min, a sample plate and a cell plate were simultaneously set on the FLIPRtetra, various test compounds were added by 25 μL according to the program of the device, and change of intracellular calcium concentration was measured. The agonist activity of each compound at 1 μM was calculated as a relative activity value to the activity of 10 μM γ linolenic acid as 100% from the wave peak height.

T1 sequence (O14842 whole entry): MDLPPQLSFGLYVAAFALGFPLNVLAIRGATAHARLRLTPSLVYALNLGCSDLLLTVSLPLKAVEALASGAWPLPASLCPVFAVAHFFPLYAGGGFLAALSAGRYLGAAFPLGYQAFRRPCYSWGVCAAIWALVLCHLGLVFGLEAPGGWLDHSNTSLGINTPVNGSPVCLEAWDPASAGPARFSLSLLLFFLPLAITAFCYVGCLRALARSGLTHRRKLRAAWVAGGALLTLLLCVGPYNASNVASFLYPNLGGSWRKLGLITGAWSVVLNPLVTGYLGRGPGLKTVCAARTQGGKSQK

Compound | activity (%)
Cc1nc(N2CCCC2)nc(C)c1-c1cccc2c1OC[C@H]2Nc1ccc2c(c1)OC[C@H]2CC(=O)O [Example 79, [(3S)-6-({(3S)-7-[4,6-dimethyl-2-(pyrrolidin-1-yl)pyrimidin-5-yl]-2,3-dihydro-1-benzofuran-3-yl}amino)-2,3-dihydro-1-benzofuran-3-yl]acetic acid] | 126
Cc1cc(OC[C@@H]2CCC(=O)N2)cc(C)c1-c1cccc2c1OC[C@H]2Nc1ccc2c(c1)OC[C@H]2CC(=O)O [Example 8, [(3S)-6-{[(3S)-7-(2,6-dimethyl-4-{[(2S)-5-oxopyrrolidin-2-yl]methoxy}phenyl)-2,3-dihydro-1-benzofuran-3-yl]amino}-2,3-dihydro-1-benzofuran-3-yl]acetic acid] | 131
Cc1c(CNc2ccc3c(c2)OC[C@H]3CC(=O)O)cccc1-n1c(C)nc2c(C)cccc21 [Example 153, [(3S)-6-{[3-(2,4-dimethyl-1H-benzimidazol-1-yl)-2-methylbenzyl]amino}-2,3-dihydro-1-benzofuran-3-yl]acetic acid] | 111
Cc1nn(C(F)F)c(C)c1-c1cccc2c1OCC2Nc1ccc2c(c1)OC[C@H]2CC(=O)O (stereo partly drawn) [Example 67, [(3S)-6-({7-[1-(difluoromethyl)-3,5-dimethyl-1H-pyrazol-4-yl]-2,3-dihydro-1-benzofuran-3-yl}amino)-2,3-dihydro-1-benzofuran-3-yl]acetic acid] | 111
Cc1c(CNc2ccc3c(c2)OC[C@H]3CC(=O)O)cccc1-n1c(C)nc2cc(C(F)(F)F)ccc21 [Example 131, [(3S)-6-({2-methyl-3-[2-methyl-5-(trifluoromethyl)-1H-benzimidazol-1-yl]benzyl}amino)-2,3-dihydro-1-benzofuran-3-yl]acetic acid] | 129
CCOc1nc2c(F)cc(F)cc2n1-c1cccc2c1OC[C@H]2Nc1ccc2c(c1)OC[C@H]2CC(=O)[O-].[Na+] [Example 37, sodium [(3S)-6-{[(3S)-7-(2-ethoxy-4,6-difluoro-1H-benzimidazol-1-yl)-2,3-dihydro-1-benzofuran-3-yl]amino}-2,3-dihydro-1-benzofuran-3-yl]acetate] | 117
CCOc1nc2ccc(F)cc2n1-c1cccc2c1OC[C@H]2Nc1ccc2c(c1)OC[C@H]2CC(=O)[O-].[Na+] [Example 25, sodium [(3S)-6-{[(3S)-7-(2-ethoxy-6-fluoro-1H-benzimidazol-1-yl)-2,3-dihydro-1-benzofuran-3-yl]amino}-2,3-dihydro-1-benzofuran-3-yl]acetate] | 129
Cc1cc(-c2cccc3c2OC[C@H]3Nc2ccc3c(c2)OC[C@H]3CC(=O)O)c(C)s1 [Example 3, [(3S)-6-{[(3S)-7-(2,5-dimethylthiophen-3-yl)-2,3-dihydro-1-benzofuran-3-yl]amino}-2,3-dihydro-1-benzofuran-3-yl]acetic acid] | 128
CCCN(c1cc(C)ccn1)c1cccc2c1OC[C@H]2Nc1ccc2c(c1)OC[C@H]2CC(=O)O [Example 82, [(3S)-6-({(3S)-7-[(4-methylpyridin-2-yl)(propyl)amino]-2,3-dihydro-1-benzofuran-3-yl}amino)-2,3-dihydro-1-benzofuran-3-yl]acetic acid] | 129
Cc1cc(-c2cccc(CNc3ccc4c(c3)OC[C@H]4CC(=O)O)c2F)c(C)s1 [Example 121, [(3S)-6-{[3-(2,5-dimethylthiophen-3-yl)-2-fluorobenzyl]amino}-2,3-dihydro-1-benzofuran-3-yl]acetic acid] | 129
Cc1nn(C(F)F)c(C)c1-c1cccc(CNc2ccc3c(c2)OC[C@H]3CC(=O)O)c1C [Example 109, [(3S)-6-({3-[1-(difluoromethyl)-3,5-dimethyl-1H-pyrazol-4-yl]-2-methylbenzyl}amino)-2,3-dihydro-1-benzofuran-3-yl]acetic acid] | 122
Cc1nc(OC(F)F)nc(C)c1-c1cccc(CNc2ccc3c(c2)OC[C@H]3CC(=O)O)c1C [Example 114, [(3S)-6-({3-[2-(difluoromethoxy)-4,6-dimethylpyrimidin-5-yl]-2-methylbenzyl}amino)-2,3-dihydro-1-benzofuran-3-yl]acetic acid] | 132
CCN(c1ccc(C#N)cc1F)c1cccc2c1OC[C@H]2Nc1ccc2c(c1)OC[C@H]2CC(=O)O [Example 89, [(3S)-6-({(3S)-7-[(4-cyano-2-fluorophenyl)(ethyl)amino]-2,3-dihydro-1-benzofuran-3-yl}amino)-2,3-dihydro-1-benzofuran-3-yl]acetic acid] | 129

Further lines, results first:

activity (%) | Compound
125 | CCOc1nc2c(OCC(F)(F)F)cccc2n1-c1cccc(CNc2ccc3c(c2)OC[C@H]3CC(=O)O)c1C [Example 180, [(3S)-6-({3-[2-ethoxy-4-(2,2,2-trifluoroethoxy)-1H-benzimidazol-1-yl]-2-methylbenzyl}amino)-2,3-dihydro-1-benzofuran-3-yl]acetic acid]
125 | Cc1ccc(CNc2ccc3c(c2)OC[C@H]3CC(=O)O)c(C)c1-c1ccc2nc(C(F)(F)F)cn2c1 [Example 219, [(3S)-6-({2,4-dimethyl-3-[2-(trifluoromethyl)imidazo[1,2-a]pyridin-6-yl]benzyl}amino)-2,3-dihydro-1-benzofuran-3-yl]acetic acid]
105 | CCOc1nc2ccc(F)cc2n1-c1cccc2c1CCC2Nc1ccc2c(c1)OC[C@H]2CC(=O)[O-].[Na+] (stereo partly drawn) [Example 227, sodium [(3S)-6-{[4-(2-ethoxy-6-fluoro-1H-benzimidazol-1-yl)-2,3-dihydro-1H-inden-1-yl]amino}-2,3-dihydro-1-benzofuran-3-yl]acetate]
126 | Cc1oc2cccnc2c1-c1cccc(CNc2ccc3c(c2)OC[C@H]3CC(=O)O)c1C [Example 221, [(3S)-6-{[2-methyl-3-(2-methylfuro[3,2-b]pyridin-3-yl)benzyl]amino}-2,3-dihydro-1-benzofuran-3-yl]acetic acid]
121 | COc1ccc(-c2c(C(F)(F)F)ccc(CNc3ccc4c(c3)OC[C@H]4CC(=O)O)c2C)cn1 [Example 207, [(3S)-6-{[3-(6-methoxypyridin-3-yl)-2-methyl-4-(trifluoromethyl)benzyl]amino}-2,3-dihydro-1-benzofuran-3-yl]acetic acid]

System: not given
Experiment: not given
Conditions: not given

melting point [°C] | Compound
169 | Cc1nc(N2CCCC2)nc(C)c1-c1cccc2c1OC[C@H]2Nc1ccc2c(c1)OC[C@H]2CC(=O)O [Example 79, [(3S)-6-({(3S)-7-[4,6-dimethyl-2-(pyrrolidin-1-yl)pyrimidin-5-yl]-2,3-dihydro-1-benzofuran-3-yl}amino)-2,3-dihydro-1-benzofuran-3-yl]acetic acid]
154 | Cc1nc(N2CCOCC2)nc(C)c1-c1cccc(CNc2ccc3c(c2)OC[C@H]3CC(=O)O)c1C (as salt: salt) [Example 242, 1,3-dihydroxy-2-(hydroxymethyl)propan-2-aminium [(3S)-6-({3[4,6-dimethyl-2-(morpholin-4-yl)pyrimidin-5-yl]-2-methylbenzyl}amino)-2,3-dihydro-1-benzofuran-3-yl]acetate]
161 | Cc1cc(OC[C@@H]2CCC(=O)N2)cc(C)c1-c1cccc2c1OC[C@H]2Nc1ccc2c(c1)OC[C@H]2CC(=O)O [Example 8, [(3S)-6-{[(3S)-7-(2,6-dimethyl-4-{[(2S)-5-oxopyrrolidin-2-yl]methoxy}phenyl)-2,3-dihydro-1-benzofuran-3-yl]amino}-2,3-dihydro-1-benzofuran-3-yl]acetic acid]
168 | Cc1nc(N2CCOCC2)nc(C)c1-c1cccc2c1OC[C@H]2Nc1ccc2c(c1)OC[C@H]2CC(=O)O [Example 77, [(3S)-6-({(3S)-7-[4,6-dimethyl-2-(morpholin-4-yl)pyrimidin-5-yl]-2,3-dihydro-1-benzofuran-3-yl}amino)-2,3-dihydro-1-benzofuran-3-yl]acetic acid]
146 | CCCN(c1cc(C)ccn1)c1cccc2c1OC[C@H]2Nc1ccc2c(c1)OC[C@H]2CC(=O)O [Example 82, [(3S)-6-({(3S)-7-[(4-methylpyridin-2-yl)(propyl)amino]-2,3-dihydro-1-benzofuran-3-yl}amino)-2,3-dihydro-1-benzofuran-3-yl]acetic acid]
